Measured values published in ChEMBL document CHEMBL1649285, “In vivo efficacy of 1- and 2-gram human simulated prolonged infusions of doripenem against Pseudomonas aeruginosa” (Antimicrob Agents Chemother, 2009).
Converted amounts (≈) assume the structure as drawn.

Experiments:
Pseudomonas aeruginosa [1] = test: Antimicrobial activity against Pseudomonas aeruginosa isolate 1036 by broth microdilution method; format: functional
Pseudomonas aeruginosa [2] = test: Antimicrobial activity against Pseudomonas aeruginosa isolate 944 by broth microdilution method; format: functional
Pseudomonas aeruginosa [3] = test: Antimicrobial activity against Pseudomonas aeruginosa isolate 1050 by broth microdilution method; format: functional
Pseudomonas aeruginosa [4] = test: Antimicrobial activity against Pseudomonas aeruginosa isolate 1060 by broth microdilution method; format: functional
Pseudomonas aeruginosa [5] = test: Antimicrobial activity against Pseudomonas aeruginosa isolate 1095 by broth microdilution method; format: functional
Pseudomonas aeruginosa [6] = test: Antimicrobial activity against Pseudomonas aeruginosa isolate 22 by broth microdilution method; format: functional
Pseudomonas aeruginosa [7] = test: Antimicrobial activity against Pseudomonas aeruginosa isolate 878 by broth microdilution method; format: functional
Pseudomonas aeruginosa [8] = test: Antimicrobial activity against Pseudomonas aeruginosa isolate 896 by broth microdilution method; format: functional
Pseudomonas aeruginosa [9] = test: Antimicrobial activity against Pseudomonas aeruginosa isolate 988 by broth microdilution method; format: functional
Pseudomonas aeruginosa [10] = test: Antimicrobial activity against Pseudomonas aeruginosa isolate 1006 by broth microdilution method; format: functional
Pseudomonas aeruginosa [11] = test: Antimicrobial activity against Pseudomonas aeruginosa isolate 856 by broth microdilution method; format: functional
Pseudomonas aeruginosa [12] = test: Antimicrobial activity against Pseudomonas aeruginosa isolate 913 by broth microdilution method; format: functional
Pseudomonas aeruginosa [13] = test: Antimicrobial activity against Pseudomonas aeruginosa isolate 927 by broth microdilution method; format: functional
Pseudomonas aeruginosa [14] = test: Antimicrobial activity against Pseudomonas aeruginosa isolate 968 by broth microdilution method; format: functional
Pseudomonas aeruginosa [15] = test: Antimicrobial activity against Pseudomonas aeruginosa isolate 971 by broth microdilution method; format: functional
Pseudomonas aeruginosa [16] = test: Antimicrobial activity against Pseudomonas aeruginosa isolate 821 by broth microdilution method; format: functional
Pseudomonas aeruginosa [17] = test: Antimicrobial activity against Pseudomonas aeruginosa isolate 1080 by broth microdilution method; format: functional
Pseudomonas aeruginosa [18] = test: Antimicrobial activity against Pseudomonas aeruginosa isolate 1093 by broth microdilution method; format: functional
[19] = fT>MIC in Pseudomonas aeruginosa selected at 2 ug/ml MIC infected human at 1 g, iv administered as 4 hrs infusion every 8 hrs; format: functional
[20] = fT>MIC in Pseudomonas aeruginosa selected at 4 ug/ml MIC infected human at 1 g, iv administered as 4 hrs infusion every 8 hrs; format: functional
[21] = fT>MIC in Pseudomonas aeruginosa selected at 8 ug/ml MIC infected human at 1 g, iv administered as 4 hrs infusion every 8 hrs; format: functional
[22] = fT>MIC in Pseudomonas aeruginosa selected at 16 ug/ml MIC infected human at 1 g, iv administered as 4 hrs infusion every 8 hrs; format: functional
[23] = fT>MIC in Pseudomonas aeruginosa selected at 32 ug/ml MIC infected human at 1 g, iv administered as 4 hrs infusion every 8 hrs; format: functional
[24] = fT>MIC in Pseudomonas aeruginosa selected at 2 ug/ml MIC infected ICR mouse at 1 g, sc administered 2 hrs post infection every 8 hrs; format: functional
[25] = fT>MIC in Pseudomonas aeruginosa selected at 4 ug/ml MIC infected ICR mouse at 1 g, sc administered 2 hrs post infection every 8 hrs; format: functional
[26] = fT>MIC in Pseudomonas aeruginosa selected at 8 ug/ml MIC infected ICR mouse at 1 g, sc administered 2 hrs post infection every 8 hrs; format: functional
[27] = fT>MIC in Pseudomonas aeruginosa selected at 16 ug/ml MIC infected ICR mouse at 1 g, sc administered 2 hrs post infection every 8 hrs; format: functional
[28] = fT>MIC in Pseudomonas aeruginosa selected at 32 ug/ml MIC infected ICR mouse at 1 g, sc administered 2 hrs post infection every 8 hrs; format: functional
[29] = fT>MIC in Pseudomonas aeruginosa selected at 2 ug/ml MIC infected human at 2 g, iv administered as 4 hrs infusion every 8 hrs; format: functional
[30] = fT>MIC in Pseudomonas aeruginosa selected at 4 ug/ml MIC infected human at 2 g, iv administered as 4 hrs infusion every 8 hrs; format: functional
[31] = fT>MIC in Pseudomonas aeruginosa selected at 8 ug/ml MIC infected human at 2 g, iv administered as 4 hrs infusion every 8 hrs; format: functional
[32] = fT>MIC in Pseudomonas aeruginosa selected at 16 ug/ml MIC infected human at 2 g, iv administered as 4 hrs infusion every 8 hrs; format: functional
[33] = fT>MIC in Pseudomonas aeruginosa selected at 32 ug/ml MIC infected human at 2 g, iv administered as 4 hrs infusion every 8 hrs; format: functional
[34] = fT>MIC in Pseudomonas aeruginosa selected at 2 ug/ml MIC infected ICR mouse at 2 g, sc administered 2 hrs post infection every 8 hrs; format: functional
[35] = fT>MIC in Pseudomonas aeruginosa selected at 4 ug/ml MIC infected ICR mouse at 2 g, sc administered 2 hrs post infection every 8 hrs; format: functional
[36] = fT>MIC in Pseudomonas aeruginosa selected at 8 ug/ml MIC infected ICR mouse at 2 g, sc administered 2 hrs post infection every 8 hrs; format: functional
[37] = fT>MIC in Pseudomonas aeruginosa selected at 16 ug/ml MIC infected ICR mouse at 2 g, sc administered 2 hrs post infection every 8 hrs; format: functional
[38] = fT>MIC in Pseudomonas aeruginosa selected at 32 ug/ml MIC infected ICR mouse at 2 g, sc administered 2 hrs post infection every 8 hrs; format: functional
Mus musculus [39] = test: fCmax in ICR mouse at 1 g, sc administered 2 hrs post infection every 8 hrs; format: ADME, organism-based; conditions: in vivo
Mus musculus [40] = test: fAUC in ICR mouse at 1 g, sc administered 2 hrs post infection every 8 hrs; format: ADME, organism-based; conditions: in vivo
Mus musculus [41] = test: fCmax in ICR mouse at 2 g, sc administered 2 hrs post infection every 8 hrs; format: ADME, organism-based; conditions: in vivo
Mus musculus [42] = test: fAUC in ICR mouse at 2 g, sc administered 2 hrs post infection every 8 hrs; format: ADME, organism-based; conditions: in vivo
Homo sapiens [43] = test: fCmax in human at 1 g, iv administered as 4 hrs infusion every 8 hrs; format: ADME, organism-based; conditions: in vivo
Homo sapiens [44] = test: fAUC in human at 1 g, iv administered as 4 hrs infusion every 8 hrs; format: ADME, organism-based; conditions: in vivo
Homo sapiens [45] = test: fCmax in human at 2 g, iv administered as 4 hrs infusion every 8 hrs; format: ADME, organism-based; conditions: in vivo
Homo sapiens [46] = test: fAUC in human at 2 g, iv administered as 4 hrs infusion every 8 hrs; format: ADME, organism-based; conditions: in vivo
Pseudomonas aeruginosa [47] = test: Antimicrobial activity against Pseudomonas aeruginosa selected at MIC […] to […] ug/ml infected ICR mouse assessed as reduction in bacterial load at 1g, sc administered 2 hrs post infection every 8 hrs; format: functional
Pseudomonas aeruginosa [48] = test: Antimicrobial activity against Pseudomonas aeruginosa selected at MIC […] to […] ug/ml infected ICR mouse assessed as reduction in bacterial load at 2g, sc administered 2 hrs post infection every 8 hrs; format: functional

C[C@@H](O)[C@H]1C(=O)N2C(C(=O)O)=C(S[C@@H]3CN[C@H](CNS(N)(=O)=O)C3)[C@H](C)[C@H]12 [DORIPENEM]
MIC (Pseudomonas aeruginosa [1]): 2 µg/mL (≈ 4.76 µM) | MIC (Pseudomonas aeruginosa [2]): 4 µg/mL (≈ 9.51 µM) | MIC (Pseudomonas aeruginosa [3]): 4 µg/mL (≈ 9.51 µM) | MIC (Pseudomonas aeruginosa [4]): 4 µg/mL (≈ 9.51 µM) | MIC (Pseudomonas aeruginosa [5]): 4 µg/mL (≈ 9.51 µM) | MIC (Pseudomonas aeruginosa [6]): 8 µg/mL (≈ 19 µM) | MIC (Pseudomonas aeruginosa [7]): 8 µg/mL (≈ 19 µM) | MIC (Pseudomonas aeruginosa [8]): 8 µg/mL (≈ 19 µM) | MIC (Pseudomonas aeruginosa [9]): 8 µg/mL (≈ 19 µM) | MIC (Pseudomonas aeruginosa [10]): 8 µg/mL (≈ 19 µM) | MIC (Pseudomonas aeruginosa [11]): 16 µg/mL (≈ 38 µM) | MIC (Pseudomonas aeruginosa [12]): 16 µg/mL (≈ 38 µM) | MIC (Pseudomonas aeruginosa [13]): 16 µg/mL (≈ 38 µM) | MIC (Pseudomonas aeruginosa [14]): 16 µg/mL (≈ 38 µM) | MIC (Pseudomonas aeruginosa [15]): 16 µg/mL (≈ 38 µM) | MIC (Pseudomonas aeruginosa [16]): 32 µg/mL (≈ 76.1 µM) | MIC (Pseudomonas aeruginosa [17]): 32 µg/mL (≈ 76.1 µM) | MIC (Pseudomonas aeruginosa [18]): 32 µg/mL (≈ 76.1 µM) | fT>MIC [19]: 80% | fT>MIC [20]: 65% | fT>MIC [21]: 50% | fT>MIC [22]: 0% | fT>MIC [23]: 0% | fT>MIC [24]: 82.5% | fT>MIC [25]: 70% | fT>MIC [26]: 52.5% | fT>MIC [27]: 0% | fT>MIC [28]: 0% | fT>MIC [29]: 95% | fT>MIC [30]: 80% | fT>MIC [31]: 65% | fT>MIC [32]: 50% | fT>MIC [33]: 0% | fT>MIC [34]: 95% | fT>MIC [35]: 82.5% | fT>MIC [36]: 70% | fT>MIC [37]: 52.5% | fT>MIC [38]: 0% | fCmax (Mus musculus [39]): 15.9 µg/mL | fAUC (Mus musculus [40]): 68600 ng·h/mL | fCmax (Mus musculus [41]): 31.9 µg/mL | fAUC (Mus musculus [42]): 137100 ng·h/mL | fCmax (Homo sapiens [43]): 15.6 µg/mL | fAUC (Homo sapiens [44]): 64700 ng·h/mL | fCmax (Homo sapiens [45]): 31.2 µg/mL | fAUC (Homo sapiens [46]): 129300 ng·h/mL | log10cfu (Pseudomonas aeruginosa [47]): >=2 | log10cfu (Pseudomonas aeruginosa [48]): >=2

NC[C@H]1O[C@H](O[C@H]2[C@H](O)[C@@H](O[C@H]3O[C@H](CO)[C@@H](O)[C@H](N)[C@H]3O)[C@H](N)C[C@@H]2N)[C@H](N)C[C@@H]1O [TOBRAMYCIN]
MIC (Pseudomonas aeruginosa [1]): 0.125 µg/mL (≈ 0.267 µM) | MIC (Pseudomonas aeruginosa [2]): 96 µg/mL (≈ 205 µM) | MIC (Pseudomonas aeruginosa [3]): 16 µg/mL (≈ 34.2 µM) | MIC (Pseudomonas aeruginosa [4]): 0.75 µg/mL (≈ 1.6 µM) | MIC (Pseudomonas aeruginosa [5]): 2 µg/mL (≈ 4.28 µM) | MIC (Pseudomonas aeruginosa [6]): 0.5 µg/mL (≈ 1.07 µM) | MIC (Pseudomonas aeruginosa [7]): 1.5 µg/mL (≈ 3.21 µM) | MIC (Pseudomonas aeruginosa [8]): 24 µg/mL (≈ 51.3 µM) | MIC (Pseudomonas aeruginosa [9]): 64 µg/mL (≈ 137 µM) | MIC (Pseudomonas aeruginosa [10]): 3 µg/mL (≈ 6.42 µM) | MIC (Pseudomonas aeruginosa [11]): 32 µg/mL (≈ 68.4 µM) | MIC (Pseudomonas aeruginosa [12]): 96 µg/mL (≈ 205 µM) | MIC (Pseudomonas aeruginosa [13]): 3 µg/mL (≈ 6.42 µM) | MIC (Pseudomonas aeruginosa [14]): 96 µg/mL (≈ 205 µM) | MIC (Pseudomonas aeruginosa [15]): 1.5 µg/mL (≈ 3.21 µM) | MIC (Pseudomonas aeruginosa [16]): 3 µg/mL (≈ 6.42 µM) | MIC (Pseudomonas aeruginosa [17]): 3 µg/mL (≈ 6.42 µM) | MIC (Pseudomonas aeruginosa [18]): 2 µg/mL (≈ 4.28 µM)
